The values below come from ChEMBL document CHEMBL4342420, “Discovery of AM-6494: A Potent and Orally Efficacious β-Site Amyloid Precursor Protein Cleaving Enzyme 1 (BACE1) Inhibitor with in Vivo Selectivity over BACE2” (J Med Chem, 2020).

Structures are written as SMILES.

A short description of series [1]: Stability in human liver microsomes at 1 uM measured after 30 mins in presence of NADPH. Format: ADME, Microsome. The note with it: read-out: Stability. On the technique in general: Microsomes from liver hold many membrane-bound enzymes, among them those of drug oxidation.
Series [2] in a line: Stability in rat liver microsomes at 1 uM measured after 30 mins in presence of NADPH. Format: ADME, Microsome. To be noted: read-out: Stability.
Series [3] is described as follows: Clearance in rat at 1 mg/kg, iv. Format: ADME, organism-based. The note with it: in vivo.
The nature of series [4]: Clearance in Beagle dog at 1 mg/kg, iv. Format: ADME, organism-based, Canis lupus familiaris. The note with it: in vivo.
The nature of series [5]: Half life in Beagle dog at 1 mg/kg, iv. Format: ADME, organism-based, Canis lupus familiaris. The note with it: in vivo.
The nature of series [6]: Free plasma concentration in depilated mouse at 100 mg/kg, po administered once daily for 13 days measured 24 hrs post-last dose. Format: ADME, organism-based. To be noted: in vivo.
Series [7] can be described thus: AUCt in Beagle dog at 10 mg/kg, po. The note with it: in vivo. Format: ADME, organism-based, Canis lupus familiaris.
A short description of series [8]: Oral bioavailability in rat at 3 mg/kg. Format: ADME, organism-based. The note with it: in vivo.
The nature of series [9]: Volume of distribution at steady state in rat at 1 mg/kg, iv. Format: ADME, organism-based. The note with it: in vivo, read-out: Vdss.
Series [10] in a line: Volume of distribution at steady state in monkey at 1 mg/kg, iv. To be noted: rhesus monkey, in vivo, read-out: Vdss. Format: ADME, organism-based, Macaca mulatta.
Series [11] is described as follows: Clearance in monkey at 1 mg/kg, iv. To be noted: rhesus monkey, in vivo. Format: ADME, organism-based, Macaca mulatta.
A short description of series [12]: Oral bioavailability in Beagle dog at 10 mg/kg. The note with it: in vivo. Format: ADME, organism-based, Canis lupus familiaris.
Series [13] can be described thus: Oral bioavailability in cynomolgus monkey at 3 mg/kg. Format: ADME, organism-based, Macaca fascicularis. To be noted: in vivo.
The nature of series [14]: AUCt in rat at 3 mg/kg, po. Format: ADME, organism-based. The note with it: in vivo.
Series [15] is described as follows: AUCt in cynomolgus monkey at 3 mg/kg, po. Format: ADME, organism-based, Macaca fascicularis. To be noted: in vivo.
The nature of series [16]: Half life in monkey at 1 mg/kg, iv. Format: ADME, organism-based, Macaca mulatta. To be noted: rhesus monkey, in vivo.
A short description of series [17]: Stability in monkey liver microsomes at 0.5 uM measured after 30 mins in presence of NADPH. To be noted: rhesus monkey, read-out: Stability. Format: ADME, Macaca mulatta, Microsome.
A short description of series [18]: Half life in rat at 1 mg/kg, iv. Format: ADME, organism-based. The note with it: in vivo.
Series [19] in a line: Stability in dog liver microsomes at 0.5 uM measured after 30 mins in presence of NADPH. Format: ADME, Canis lupus familiaris, Microsome. To be noted: read-out: Stability.
A short description of series [20]: Volume of distribution at steady state in Beagle dog at 1 mg/kg, iv. Format: ADME, organism-based, Canis lupus familiaris. To be noted: in vivo, read-out: Vdss.
Series [21] in a line: Free plasma concentration in depilated mouse at 120 mg/kg, po administered once daily for 13 days measured 24 hrs post-last dose. Format: ADME, organism-based. The note with it: in vivo.
Series [22] is described as follows: Free plasma concentration in depilated mouse at 30 mg/kg, po administered once daily for 13 days measured 24 hrs post-last dose. Format: ADME, organism-based. To be noted: in vivo.
Series [23] in a line: Free plasma concentration in depilated mouse at 10 mg/kg, po administered once daily for 13 days measured 24 hrs post-last dose. Format: ADME, organism-based. To be noted: in vivo.

As to `C#CCOc1cnc(C(=O)Nc2cc(F)c(F)c([C@@]3(C)N=C(N)S[C@@]4(CF)C[C@H]43)c2)cn1`, the microsomal CLint at 1 µM was 76 µL/min/mg in series [1] and 87 µL/min/mg in series [2].

For `C[C@]1(c2cc(NC(=O)c3ccc(Cl)cn3)cc(F)c2F)N=C(N)S[C@@]2(C(N)=O)C[C@H]21`, the microsomal CLint at 1 µM in series [1] and in series [2] was under 14 µL/min/mg throughout.

`COC[C@]12C[C@H]1[C@@](C)(c1cc(NC(=O)c3cnc(OCCC(F)(F)F)cn3)cc(F)c1F)N=C(N)S2`: the figures for the microsomal CLint at 1 µM in series [1] and in series [2] were 29 µL/min/mg and 156 µL/min/mg, respectively.

As to `C#CCOc1cnc(C(=O)Nc2cc(F)c(F)c([C@@]3(C)N=C(N)S[C@@]4(COC)C[C@H]43)c2)cn1`, the clearance (usually the rate of elimination divided by the concentration) in series [3] is 21.7 mL/min/kg; in [4] it was 15 mL/min/kg; in series [11] it was 35 mL/min/kg. Besides, the half-life (usually the time in which the quantity being followed falls by half) was 2 h in series [5], 8.3 h in series [16] and 1.5 h in [18]. In addition, the “Cp(f)” value in [6] amounted to 32 nM. For the same compound, the results for the AUCt in series [7], in [14] and in [15] were 22 µM·h, 2.4 µM·h and 2.3 µM·h, respectively. Also, the results for the bioavailability in series [8], in [12] and in series [13] were 48%, 100% and 28%, respectively. The Vd amounted to 1.7 L/kg in series [9], 17 L/kg in series [10] and 3.2 L/kg in series [20]. In addition, the microsomal CLint at 0.5 µM in series [17] came to 146 µL/min/mg; in [19], 62 µL/min/mg. The microsomal CLint at 1 µM in series [1] was 41 µL/min/mg; in [2], 84 µL/min/mg.

As to `NC1=N[C@@]2(CO1)c1cc(-c3cccnc3F)ccc1Oc1c2cc(C2=CCCOC2)nc1F`, the results for the “Cp(f)” value in series [21], in series [22] and in [23] were 328 nM, 88 nM and 38 nM, respectively.
